Converted amounts (≈) assume the structure as drawn. Where only a bound is given, the exact number is not on record here.

The values below come from patent US20250161262A1, “Pharmaceutical Compositions and Methods for Treating Covid” (priority 2022, published 2025).

In one data set the test system is Norovirus. The data set can be described thus: Norovirus tests. Type of data set: cell-based. The conditions noted are these: one of the Norovirus tests; read-out: ECso. The text has this: (§1) It is important to understand that mycophenolic acid's anti-viral effect is likely to require a small fraction (about 1-2% or less) of the clinical dose which is approved and commonly used for prevention of transplant rejection. For instance, Chan et al., 2013, p. […] For instance, in one of the Norovirus tests we document here, ECso of 0.151 mcg/mL was reported. Even less mycophenolic acid would be needed to treat viruses such as Influenza A HNI and RSV in which we report ECso <0.10 mcg/ml. Dramatically lower doses may suffice for mycophenolic acid. Therefore, it is not only possible to achieve adequate body levels of mycophenolic acid to treat these viruses clinically, but also a small fraction of the current clinical dose may be more than adequate. To et al, 2016 also presented data on page 1812 supporting these conclusions.

A further data set deals with Influenza A HNI. The data set can be described thus: antiviral EC50 against Influenza A. Type of data set: cell-based. The conditions noted are these: Influenza A virus, read-out: ECso.
The test system of the next data set is RSV. The data set can be described thus: antiviral EC50 against RSV. Type of data set: cell-based. The conditions noted are these: human respiratory syncytial virus, read-out: ECso.
Description: as §1

Data set [1] relates to Influenza A(H1N1) strain A/WSN/1933. The conditions noted are these: Chan et al. (2013); cited from earlier work.
For data set [2], the system named is pandemic flu H/415, A/Hong Kong/415742/2009, A(HINI)pdm09. The conditions noted are these: To et al. (2016); cited from earlier work.
Data set [3] relates to seasonal influenza A(H3N2) virus. The conditions noted are these: To et al. (2016); cited from earlier work.
The test system of data set [4] is avian-origin influenza A (H7N9). The conditions noted are these: To et al. (2016); cited from earlier work.
A further data set deals with virus. The conditions noted are these: cited from earlier work.
The next data set deals with MERS coronavirus. The conditions noted are these: MERS coronavirus patients; cited from earlier work.

Take `COc1c(C)c2c(c(O)c1C/C=C(\C)CCC(=O)O)C(=O)OC2` [mycophenolic acid, 6-(4-hydroxy-6-methoxy-7-methyl-3-oxo-1,3-dihydroisobenzofuran-5-yl)-4-methyl-hex-4-enoic acid]: the EC50 in the data set with Norovirus is 0.151 µg/mL (≈ 0.471 µM); in the data set on Influenza A HNI, under 0.1 µg/mL; in the data set on RSV, under 0.1 µg/mL. The effectiveness against virus entry in data set [1] is “effectiveness”; in [2], “effective”; in data set [3] it was “effective”; in data set [4], “effective”. For the same molecule, the EC so in the data set with virus (Chan et al., 2013, p. 612) was 0.17 µg/mL. Besides, the “local concentrations at usual clinical doses, greater than needed” value in the data set with virus (usual clinical doses of mycophenolic acid, Chan et al., 2013) is reported as 60-300 ×.
For the molecule `COc1c(C)c2c(c(O)c1C/C=C(\C)CCC(=O)OCCN1CCOCC1)C(=O)OC2` [mycophenolate mofetil, 2-morpholinoethyl ester of mycophenolic acid], the mortality result in the data set with MERS coronavirus is “no mortality”.
